In patent US8748377B2, “Pharmaceutical compositions” (GlaxoSmithKline LLC, priority 2008, dated 2014):
Where “and” joins values, the source holds several entries; their conditions need not be identical. Equal values may be shown once. Marks after values point to notes of the source that are not given here.

Columns and labels:
[1] = system: type 2 diabetic subjects; experiment: Phase 2 randomized, placebo-controlled 16-week trial of weekly, biweekly and monthly albiglutide: glycemic efficacy (A1C, FPG, weight); format: in vivo, human; details: for A1C change from baseline (mean) / FPG change from baseline (mean) / Subjects achieving A1C < 7.0% / A1C reduction compared with placebo (ANCOVA model) / FPG change from baseline compared with placebo: week 16; for FPG reduction in background metformin (MET) subjects: after 16 weeks; for Weight loss: across albiglutide groups
Text: Main outcome measure was change from baseline A1C, week 16 vs placebo.
Men and women of non-childbearing potential from 18-75 years of age were eligible for inclusion if diagnosed with type 2 diabetes ≧3 months before screening. Subjects were drug-naïve (diet & exercise) or treated with diet and exercise plus metformin as monotherapy stable for >3 months before prescreening (1 week prior to screening visit). […] Additional inclusion criteria included: BMI≧20 and ≦40 kg/m^2 and A1C at screening ≧7% and ≦10%.
A1C and fasting plasma glucose (FPG) measurements were performed at Screening, Baseline, and at Weeks 2 (FPG Only), 4, 5, 7, 8, 9, 12, 15, and 16.
The primary efficacy endpoint was change from baseline A1C at week 16 vs placebo across different doses within each schedule (weekly, biweekly, and monthly). The primary analysis was an ANCOVA model with main effects for treatment group and prior metformin therapy, adjusting for baseline A1C. Dose response was evaluated using contrasts within the ANCOVA model framework. Pairwise comparisons were performed in the same ANCOVA model. Secondary endpoints were analyzed similarly. Responder analysis and incidence of hypoglycemia were summarized by group statistics. […] Safety and tolerability data were collected categorically.
(§1) Comparisons were made on the intent-to-treat population, defined as all randomly assigned subjects with at least one post-baseline assessment of the primary endpoint, using last-observation carried forward. The safety population included all randomized patients who received at least one dose of any medication after being randomized. An interim analysis was conducted at 8 weeks for administrative purposes by an independent statistical analysis group; blinding was retained for study investigators and study personnel with daily operational responsibility.
Patients were also assessed for reduction in fasting plasma glucose (FPG) and HbA1c reduction based on background metformin (MET) treatment.

[2] = system: anti-albiglutide antibodies; experiment: Phase 2 trial: immunogenicity, anti-albiglutide antibodies via ELISA; format: in vivo, human
Protocol: (§2) Adverse event assessments and safety analyses (including electrocardiograms, vital sign measurements and physical exams) were conducted throughout the study. Nausea and vomiting were monitored for occurrence and duration. Immunogenicity assessments were performed with samples taken at baseline and at weeks 1, 4, 8, and 12, and 16. Samples were screened for anti-albiglutide antibodies via ELISA (Matthews, et al. J Clin Endocrinol Metab. 2008; DOI: 10.1210/jc.2008-1518). […] Population PK analysis was performed using a nonlinear mixed-effect modelling approach with NONMEM software (Icon Development Solutions, Ellicott City, Md.).
An 11-week post-treatment washout period was included to monitor development of anti-albiglutide antibodies. […] The appearance of anti-albiglutide antibodies was largely transient, with 1 subject remaining positive at week 27. […] There was no obvious association between presence of anti-albiglutide antibodies and either efficacy or safety.

[3] = Baggio, et al. Diabetes 53:2492-2500, 2004; cited from earlier work
[4] = system: type 2 diabetic subjects; design: species or system human; details: in vivo
Protocol: as §2, with “16.” for “16. Samples were screened for anti-albiglutide antibodies via ELISA (Matthews, et al. J Clin Endocrinol Metab. 2008; DOI: 10.1210/jc.2008-1518).”
as §1
Gastrointestinal (GI) adverse events may limit adherence to GLP-1 therapies.

[5] = system: Japanese subjects with type 2 diabetes; experiment: 28-day study in Japanese subjects: safety/tolerability; format: in vivo, human
Protocol: (§3) In the 100 mg monthly group, most common AEs were flatulence (n=3, 38%), vomiting (n=3, 38%) and nausea (n=2, 25%).

[6] = Phase 2 trial: pharmacokinetics of albiglutide (plasma ELISA, population PK with NONMEM); format: in vivo, human
Protocol: as §2

[7] = system: Japanese subjects with type 2 diabetes; experiment: 28-day single-blind placebo-controlled study in Japanese subjects: pharmacodynamics (FPG, AUC0-4 glucose, A1C); format: in vivo, human
[8] = 28-day study in Japanese subjects: pharmacokinetics; format: in vivo, human; details: sc abdomen
Protocol: as §3

[9] = 30 mg weekly sc, listed as albiglutide
[10] = 50 mg biweekly sc, listed as ALB
[11] = 50 mg biweekly sc, listed as albiglutide
[12] = 100 mg monthly sc, listed as ALB
[13] = 100 mg monthly sc, listed as albiglutide

Albiglutide: Long-acting GLP-1 receptor agonist: two DPP-4-resistant human GLP-1 analogs (GLP-1(7-36)(A8G)) fused to human albumin; SEQ ID NO:1
A1C change from baseline (mean) ([1]; 4 mg weekly sc): −0.11% | FPG change from baseline (mean) ([1]; 4 mg weekly sc): -0.47 ± 3.1 mmol/L | Subjects achieving A1C < 7.0% ([1]; 4 mg weekly sc): 17.6% | A1C change from baseline (mean) ([1]; 4 mg weekly sc, listed as ALB): −0.1 ± 1.2% | A1C change from baseline (mean) ([1]; 15 mg biweekly sc): −0.56% | FPG change from baseline (mean) ([1]; 15 mg biweekly sc): -1.28 ± 2.4 mmol/L | Subjects achieving A1C < 7.0% ([1]; 15 mg biweekly sc): 26.7% | A1C change from baseline (mean) ([1]; 15 mg biweekly sc, listed as ALB): −0.6 ± 1.0% | A1C change from baseline (mean) ([1]; 15 mg weekly sc): −0.49% | FPG change from baseline (mean) ([1]; 15 mg weekly sc): -0.72 ± 1.7 mmol/L | A1C change from baseline (mean) ([1]; 15 mg weekly sc, listed as ALB): −0.5 ± 0.7% | A1C change from baseline (mean) ([1]; 30 mg biweekly sc): −0.79 ± % | FPG change from baseline (mean) ([1]; 30 mg biweekly sc): -1.58 ± 2.1 mmol/L | Subjects achieving A1C < 7.0% ([1]; 30 mg biweekly sc): 50.0% | A1C change from baseline (mean) ([1]; 30 mg biweekly sc, listed as ALB): −0.8 ± 1.0 % | MET patients achieving HbA1c <7% ([1]; 30 mg weekly): 43% | A1C change from baseline (mean) ([1]; 30 mg weekly sc): −0.87 ± % | A1C change from baseline (mean) ([1]; 30 mg weekly sc, listed as ALB): −0.9 ± 0.7 % | FPG change from baseline (mean) ([1]; 30 mg weekly sc, listed as ALB): -1.44 ± 2.0 mmol/L | Subjects achieving A1C < 7.0% ([1]; 30 mg weekly sc, listed as ALB): 51.7% | A1C change from baseline (mean) [1, 9]: −0.87% and −0.9% | FPG change from baseline (mean) [1, 9]: -1.44 mmol/L | Subjects achieving A1C < 7.0% [1, 9]: 52% | HbA1c reduction in MET subjects ([1]; 30 mg weekly, 16 weeks): −0.78% | FPG reduction in background metformin (MET) subjects ([1]; 30 mg weekly): -1.26 mmol/L | A1C reduction compared with placebo (ANCOVA model) ([1]; 30 mg weekly): −0.62% | FPG change from baseline compared with placebo ([1]; 30 mg weekly): -1.38 mmol/L | MET patients achieving HbA1c <7% ([1]; 50 mg biweekly): 50% | A1C change from baseline (mean) ([1]; 50 mg biweekly sc): −0.79 ± % | A1C change from baseline (mean) [1, 10]: −0.8 ± 1.0 % | FPG change from baseline (mean) [1, 10]: -1.32 ± 3.5 mmol/L | Subjects achieving A1C < 7.0% [1, 10]: 52.9% | A1C change from baseline (mean) [1, 11]: −0.79% and −0.8% | FPG change from baseline (mean) [1, 11]: -1.32 mmol/L | Subjects achieving A1C < 7.0% [1, 11]: 53% | HbA1c reduction in MET subjects ([1]; 50 mg biweekly, 16 weeks): −0.83% | FPG reduction in background metformin (MET) subjects ([1]; 50 mg biweekly): -2.10 mmol/L | A1C reduction compared with placebo (ANCOVA model) ([1]; 50 mg biweekly): −0.57% | FPG change from baseline compared with placebo ([1]; 50 mg biweekly): -1.16 mmol/L | A1C change from baseline (mean) ([1]; 50 mg monthly sc): −0.55% | FPG change from baseline (mean) ([1]; 50 mg monthly sc): -0.72 ± 2.8 mmol/L | Subjects achieving A1C < 7.0% ([1]; 50 mg monthly sc): 22.9% | A1C change from baseline (mean) ([1]; 50 mg monthly sc, listed as ALB): −0.6 ± 1.0% | MET patients achieving HbA1c <7% ([1]; 100 mg monthly): 46% | A1C change from baseline (mean) ([1]; 100 mg monthly sc): −0.87 ± % | A1C change from baseline (mean) [1, 12]: −0.9 ± 0.9 % | FPG change from baseline (mean) [1, 12]: -1.22 ± 3.5 mmol/L | Subjects achieving A1C < 7.0% [1, 12]: 48.4% | A1C change from baseline (mean) [1, 13]: −0.87% and −0.9% | FPG change from baseline (mean) [1, 13]: -1.22 mmol/L | Subjects achieving A1C < 7.0% [1, 13]: 48% | HbA1c reduction in MET subjects ([1]; 100 mg monthly, 16 weeks): −0.77% | FPG reduction in background metformin (MET) subjects ([1]; 100 mg monthly): -1.80 mmol/L | A1C reduction compared with placebo (ANCOVA model) ([1]; 100 mg monthly): −0.60% | FPG change from baseline compared with placebo ([1]; 100 mg monthly): -1.17 mmol/L | Mean systolic and diastolic blood pressure ([1]; 16-week trial): tended to reduce | Plasma lipoprotein profile ([1]; 16-week trial): did not significantly change | Weight loss ([1]; MET group, 16 weeks): −0.4 to −2.1 kg | Average weight loss ([1]; highest dose regimens in each timing schedule, 16 weeks): −1.1 to −1.7 kg | A1C reduction from a mean baseline A1C of 8.0% ([1]; maximum doses of each schedule (30 mg weekly, 50 mg biweekly, 100 mg monthly)): 0.8-0.9% | Weight loss ([1]; overall population, 16 weeks): −0.9 to −1.8 kg | β-cell function (assessed by HOMA-B) ([1]; subjects receiving albiglutide): Small improvements | Subjects positive for anti-albiglutide antibodies ([2]; 8 subjects in placebo and albiglutide arms, incl. 1 on placebo and 2 positive at baseline, through week 27): 2.5% | Character of anti-albiglutide antibodies ([2]; antibody-positive subjects): non-neutralizing, low-titer | Permeability to the central nervous system [3]: relatively impermeant | Documented hypoglycemia [4]: 0-3.1% | Documented hypoglycemia (in words) [4]: not increased | Injection site local skin reactions [4]: 2.9-28.2% | Nausea (AE incidence) ([5]; 100 mg monthly group, n=2): 25% | Flatulence (AE incidence) ([5]; 100 mg monthly group, n=3): 38% | Vomiting (AE incidence) ([5]; 100 mg monthly group, n=3): 38% | Serious AEs ([5]; all doses, 28 days): No serious AEs | Tolerability ([5]; all doses, 28 days): generally well-tolerated | Steady state achieved after ([6]; 30 mg weekly): 4-5 doses | Tmax ([6]; albiglutide sc): ~72 h | Half-life ([6]; sc, type 2 diabetic subjects): ~120 h | Time to steady state levels after the first dose ([6]; sc, type 2 diabetic subjects): 4-5 weeks | Half-life ([6]; sc, type 2 diabetic subjects, listed as SEQ ID NO:1): about 5 days | A1C, PBO-adjusted change from baseline (LS Means Difference) ([7]; 15 mg weekly, day 29): −0.58*/ % | FPG, PBO-adjusted change from baseline (LS Means Difference) ([7]; 15 mg weekly, day 29): −34.5* mg/dL | A1C, PBO-adjusted change from baseline (LS Means Difference) ([7]; 15 mg weekly, day 43): −0.87* % | A1C, PBO-adjusted change from baseline (LS Means Difference) ([7]; 30 mg weekly, day 29): −0.57*/ % | FPG, PBO-adjusted change from baseline (LS Means Difference) ([7]; 30 mg weekly, day 29): −35.6* mg/dL | A1C, PBO-adjusted change from baseline (LS Means Difference) ([7]; 30 mg weekly, day 43): −0.78* % | A1C, PBO-adjusted change from baseline (LS Means Difference) ([7]; 50 mg biweekly, day 29): −0.63*/ % | FPG, PBO-adjusted change from baseline (LS Means Difference) ([7]; 50 mg biweekly, day 29): −31.3* mg/dL | A1C, PBO-adjusted change from baseline (LS Means Difference) ([7]; 50 mg biweekly, day 43): −0.79* % | A1C, PBO-adjusted change from baseline (LS Means Difference) ([7]; 100 mg monthly, day 29): −0.51*/ % | FPG, PBO-adjusted change from baseline (LS Means Difference) ([7]; 100 mg monthly, day 29): -13.2 mg/dL | A1C, PBO-adjusted change from baseline (LS Means Difference) ([7]; 100 mg monthly, day 43): −0.59* % | Onset of improvement of FPG and weighted mean AUC0-4 glucose ([7]; Japanese subjects): improved as early as day 3 | CL/F [8]: 68.7 mL/h | Plasma t1/2 [8]: 127 h | V/F [8]: 12.6 L
